Earlier results, collected in patent publication US20190307696A1, “TABLETS COMPRISING MIRABEGRON AND SOLIFENACIN” (SYNTHON B.V., priority 2016, published 2019).

What was measured:
[1] = neutral to acidic pH
[2] = presence of food in the GI tract

For `Nc1nc(CC(=O)Nc2ccc(CCNC[C@H](O)c3ccccc3)cc2)cs1` [Mirabegron], the “permeability (BCS)” value is listed as “low permeability”, the “solubility (BCS)” value is listed as “high solubility” and the solubility in water [1] is listed as “soluble in water between neutral to acidic pH”. The bioavailability [2] was “affected by the presence of food in the GI tract”.
